tested on: HCT116 colorectal cancer cells; assay: Cisplatin sensitization assay (96 h MTS cell viability); type: cell-based; settings: Cisplatin sensitization value;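 further: compound concentration needed to lower the IC50 of Cisplatin alone by a set fold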
How it was run: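 HCT116 cells were dosed simultaneously with compound and cisplatin as a full matrix of 2-fold serial dilutions from 10 μM top final concentration. Incubation was 96 h at 37° C., 5% CO2, followed by 1 h with MTS reagent for the viability read-out. Sensitization values were binned into +++, ++ and + categories.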

SMILES | Cisplatin Sensitization Assay
CN(C)CCNC(=O)C1CCN(c2c(F)cncc2NC(=O)c2c(N)nn3cc(F)cnc23)CC1 [I-G-30, 2-amino-N-(4-(4-((2-(dimethylamino)ethyl)carbamoyl)piperidin-1-yl)-5-fluoropyridin-3-yl)-6-fluoropyrazolo[1,5-a]pyrimidine-3-carboxamide] | +++ (Compounds with a Cisplatin sensitization value of <0.02 μM are marked with “+++.”)
CN(C)CCN(C)C(=O)C1CCN(c2c(F)cncc2NC(=O)c2c(N)nn3cc(F)cnc23)CC1 [I-G-31, 2-amino-N-(4-(4-((2-(dimethylamino)ethyl)(methyl)carbamoyl)piperidin-1-yl)-5-fluoropyridin-3-yl)-6-fluoropyrazolo[1,5-a]pyrimidine-3-carboxamide] | +++ (Compounds with a Cisplatin sensitization value of <0.02 μM are marked with “+++.”)
Nc1nn2cc(F)cnc2c1C(=O)Nc1cncc(F)c1N1CCC(C(=O)N2CCN(C3COC3)CC2)CC1 [I-G-32, 2-amino-6-fluoro-N-[5-fluoro-4-[4-[4-(oxetan-3-yl)piperazine-1-carbonyl]-1-piperidyl]-3-pyridyl]pyrazolo[1,5-a]pyrimidine-3-carboxamide] | +++ (Compounds with a Cisplatin sensitization value of <0.02 μM are marked with “+++.”)
CNC(=O)C1CCN(c2c(F)cncc2NC(=O)c2c(N)nn3cc(F)cnc23)CC1 [I-G-33, 2-amino-6-fluoro-N-(5-fluoro-4-(4-(methylcarbamoyl)piperidin-1-yl)pyridin-3-yl)pyrazolo[1,5-a]pyrimidine-3-carboxamide] | +++ (Compounds with a Cisplatin sensitization value of <0.02 μM are marked with “+++.”)
CNC1CN(C(=O)C2CCN(c3c(F)cncc3NC(=O)c3c(N)nn4cc(F)cnc34)CC2)C1 [I-G-34, 2-amino-6-fluoro-N-(5-fluoro-4-(4-(3-(methylamino)azetidine-1-carbonyl)piperidin-1-yl)pyridin-3-yl)pyrazolo[1,5-a]pyrimidine-3-carboxamide] | +++ (Compounds with a Cisplatin sensitization value of <0.02 μM are marked with “+++.”)
Nc1nn2cc(F)cnc2c1C(=O)Nc1cncc(F)c1N1CCC(C(=O)N2CCN(C3CCC3)CC2)CC1 [I-G-35, 2-amino-N-(4-(4-(4-cyclobutylpiperazine-1-carbonyl)piperidin-1-yl)-5-fluoropyridin-3-yl)-6-fluoropyrazolo[1,5-a]pyrimidine-3-carboxamide] | +++ (Compounds with a Cisplatin sensitization value of <0.02 μM are marked with “+++.”)
Nc1nn2cc(F)cnc2c1C(=O)Nc1cncc(F)c1N1CCC(C(=O)N2CCOCC2)CC1 [I-G-36, 2-amino-6-fluoro-N-(5-fluoro-4-(4-(morpholine-4-carbonyl)piperidin-1-yl)pyridin-3-yl)pyrazolo[1,5-a]pyrimidine-3-carboxamide] | +++ (Compounds with a Cisplatin sensitization value of <0.02 μM are marked with “+++.”)
Nc1nn2cc(F)cnc2c1C(=O)Nc1cncc(F)c1N1CCC(C(=O)NC2COC2)CC1 [I-G-37, 2-amino-6-fluoro-N-(5-fluoro-4-(4-(oxetan-3-ylcarbamoyl)piperidin-1-yl)pyridin-3-yl)pyrazolo[1,5-a]pyrimidine-3-carboxamide] | ++ (Compounds with a Cisplatin sensitization value >0.02 μM but <0.2 μM are marked with “++.”)
CN1CCN(C(=O)C2CCN(c3c(F)cncc3NC(=O)c3c(N)nn4cc(F)cnc34)CC2)CC12CC2 [I-G-38, 2-amino-6-fluoro-N-(5-fluoro-4-(4-(4-methyl-4,7-diazaspiro[2.5]octane-7-carbonyl)piperidin-1-yl)pyridin-3-yl)pyrazolo[1,5-a]pyrimidine-3-carboxamide] | +++ (Compounds with a Cisplatin sensitization value of <0.02 μM are marked with “+++.”)
COCCN(C)C(=O)C1CCN(c2c(F)cncc2NC(=O)c2c(N)nn3cc(F)cnc23)CC1 [I-G-40, 2-amino-6-fluoro-N-(5-fluoro-4-(4-((2-methoxyethyl)(methyl)carbamoyl)piperidin-1-yl)pyridin-3-yl)pyrazolo[1,5-a]pyrimidine-3-carboxamide] | +++ (Compounds with a Cisplatin sensitization value of <0.02 μM are marked with “+++.”)
Nc1nn2cc(F)cnc2c1C(=O)Nc1cncc(F)c1N1CCC(C(=O)N2CC(O)C2)CC1 [I-G-41, 2-amino-6-fluoro-N-(5-fluoro-4-(4-(3-hydroxyazetidine-1-carbonyl)piperidin-1-yl)pyridin-3-yl)pyrazolo[1,5-a]pyrimidine-3-carboxamide] | +++ (Compounds with a Cisplatin sensitization value of <0.02 μM are marked with “+++.”)
Nc1nn2cc(F)cnc2c1C(=O)Nc1cncc(F)c1N1CCC(C(=O)NCCN2CCC2)CC1 [I-G-42, 2-amino-N-(4-(4-((2-(azetidin-1-yl)ethyl)carbamoyl)piperidin-1-yl)-5-fluoropyridin-3-yl)-6-fluoropyrazolo[1,5-a]pyrimidine-3-carboxamide] | +++ (Compounds with a Cisplatin sensitization value of <0.02 μM are marked with “+++.”)
Nc1nn2cc(F)cnc2c1C(=O)Nc1cncc(F)c1N1CCC(C(=O)N2CC(N3CCCC3)C2)CC1 [I-G-43, 2-amino-6-fluoro-N-(5-fluoro-4-(4-(3-(pyrrolidin-1-yl)azetidine-1-carbonyl)piperidin-1-yl)pyridin-3-yl)pyrazolo[1,5-a]pyrimidine-3-carboxamide] | +++ (Compounds with a Cisplatin sensitization value of <0.02 μM are marked with “+++.”)
Nc1nn2cc(F)cnc2c1C(=O)Nc1cncc(F)c1N1CCC(C(=O)N2CC3CCC(C2)N3)CC1 [I-G-44, N-(4-(4-(3,8-diazabicyclo[3.2.1]octane-3-carbonyl)piperidin-1-yl)-5-fluoropyridin-3-yl)-2-amino-6-fluoropyrazolo[1,5-a]pyrimidine-3-carboxamide] | +++ (Compounds with a Cisplatin sensitization value of <0.02 μM are marked with “+++.”)
C[C@@H]1CN(C(=O)C2CCN(c3c(F)cncc3NC(=O)c3c(N)nn4cc(F)cnc34)CC2)CCN1 [I-G-45, (R)-2-amino-6-fluoro-N-(5-fluoro-4-(4-(3-methylpiperazine-1-carbonyl)piperidin-1-yl)pyridin-3-yl)pyrazolo[1,5-a]pyrimidine-3-carboxamide] | +++ (Compounds with a Cisplatin sensitization value of <0.02 μM are marked with “+++.”)
Nc1nn2cc(F)cnc2c1C(=O)Nc1cncc(F)c1N1CCC(C(=O)N2CCN3CCC2C3)CC1 (centres unmarked) [I-G-46, N-(4-(4-(1,4-diazabicyclo[3.2.1]octane-4-carbonyl)piperidin-1-yl)-5-fluoropyridin-3-yl)-2-amino-6-fluoropyrazolo[1,5-a]pyrimidine-3-carboxamide] | +++ (Compounds with a Cisplatin sensitization value of <0.02 μM are marked with “+++.”)
Nc1nn2cc(F)cnc2c1C(=O)Nc1cncc(Cl)c1N1CCC(C(=O)N2CCNCC2)CC1 [I-G-48, 2-amino-N-(5-chloro-4-(4-(piperazine-1-carbonyl)piperidin-1-yl)pyridin-3-yl)-6-fluoropyrazolo[1,5-a]pyrimidine-3-carboxamide] | +++ (Compounds with a Cisplatin sensitization value of <0.02 μM are marked with “+++.”)
Nc1nn2cc(F)cnc2c1C(=O)Nc1cncc(F)c1N1CCC(C(=O)N2CC(N3CCC3)C2)CC1 [I-G-49, N-(4-(4-([1,3′-biazetidine]-1′-carbonyl)piperidin-1-yl)-5-fluoropyridin-3-yl)-2-amino-6-fluoropyrazolo[1,5-a]pyrimidine-3-carboxamide] | +++ (Compounds with a Cisplatin sensitization value of <0.02 μM are marked with “+++.”)
C[C@@H]1CN(C(=O)C2CCN(c3c(F)cncc3NC(=O)c3c(N)nn4cc(F)cnc34)CC2)CCN1C [I-G-50, (R)-2-amino-N-(4-(4-(3,4-dimethylpiperazine-1-carbonyl)piperidin-1-yl)-5-fluoropyridin-3-yl)-6-fluoropyrazolo[1,5-a]pyrimidine-3-carboxamide] | +++ (Compounds with a Cisplatin sensitization value of <0.02 μM are marked with “+++.”)
Nc1nn2cc(F)cnc2c1C(=O)Nc1cncc(F)c1N1CCC(C(=O)N2CC3CNCC3C2)CC1 (centres unmarked) [I-G-51, 2-amino-6-fluoro-N-(5-fluoro-4-(4-(octahydropyrrolo[3,4-c]pyrrole-2-carbonyl)piperidin-1-yl)pyridin-3-yl)pyrazolo[1,5-a]pyrimidine-3-carboxamide] | +++ (Compounds with a Cisplatin sensitization value of <0.02 μM are marked with “+++.”)
CN1C2CCC1CN(C(=O)C1CCN(c3c(F)cncc3NC(=O)c3c(N)nn4cc(F)cnc34)CC1)C2 [I-G-52, 2-amino-6-fluoro-N-(5-fluoro-4-(4-(8-methyl-3,8-diazabicyclo[3.2.1]octane-3-carbonyl)piperidin-1-yl)pyridin-3-yl)pyrazolo[1,5-a]pyrimidine-3-carboxamide] | +++ (Compounds with a Cisplatin sensitization value of <0.02 μM are marked with “+++.”)
CN1CC2CC1CN2C(=O)C1CCN(c2c(F)cncc2NC(=O)c2c(N)nn3cc(F)cnc23)CC1 (centres unmarked) [I-G-53, 2-amino-6-fluoro-N-(5-fluoro-4-(4-(5-methyl-2,5-diazabicyclo[2.2.1]heptane-2-carbonyl)piperidin-1-yl)pyridin-3-yl)pyrazolo[1,5-a]pyrimidine-3-carboxamide] | +++ (Compounds with a Cisplatin sensitization value of <0.02 μM are marked with “+++.”)
CN1CCN(C(=O)C2(C)CCN(c3c(F)cncc3NC(=O)c3c(N)nn4cc(F)cnc34)CC2)CC1 [I-G-54, 2-amino-6-fluoro-N-(5-fluoro-4-(4-methyl-4-(4-methylpiperazine-1-carbonyl)piperidin-1-yl)pyridin-3-yl)pyrazolo[1,5-a]pyrimidine-3-carboxamide] | +++ (Compounds with a Cisplatin sensitization value of <0.02 μM are marked with “+++.”)

Reference: patent US11117900B2 (Vertex Pharmaceuticals Incorporated, priority 2012, dated 2021)
